The text below walks through data of patent publication US20240262878A1, “PHOTOACTIVATABLE GASDERMIN PROTEINS” (THE BOARD OF TRUSTEES OF THE UNIVERSITY OF ILLINOIS, priority 2021, published 2024).

“Also recorded” adds a separate entry of the source.

The target in one assay is T1, GSDMD pores (Homo sapiens, UniProt P57764).
T1 construct: His-SUMO (N, cleaved yes); made in house; host or cells: E. coli BL21
T1 sequence (P57764 1-275 limits assumed): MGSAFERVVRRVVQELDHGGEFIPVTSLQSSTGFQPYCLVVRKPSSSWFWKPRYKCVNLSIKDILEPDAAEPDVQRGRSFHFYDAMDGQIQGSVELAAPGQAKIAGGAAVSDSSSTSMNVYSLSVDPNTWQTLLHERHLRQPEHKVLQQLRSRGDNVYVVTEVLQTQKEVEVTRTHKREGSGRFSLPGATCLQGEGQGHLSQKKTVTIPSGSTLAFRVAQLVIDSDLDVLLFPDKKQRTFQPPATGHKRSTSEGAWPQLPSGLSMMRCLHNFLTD
The assay is described as follows: Free-standing planar lipid bilayer electrophysiology of reconstituted GSDMD pores. The assay is classed as biochemical. The conditions noted are these: for single pore activity / pore dynamics profile: lipid in POPE/POPC bilayer; for time to observe GSDMD protein-membrane interaction, in words: lipid in bilayer compared to baseline or PIP2 bilayer. How it is done: Protein Purification. Plasmid encoding the full length human GSDMD with a N-terminal His-SUMO tag was transformed into E. coli BL21 strain. The cultures were grown at 37° C. until OD600 0.8, and protein expression was induced with 0.2 mM isopropyl β-D-1-thiogalactopyranoside (IPTG) overnight at 20° C. The cells were harvested by centrifugation and the pellet was resuspended in 20 mM Tris buffer, pH 7.5, 50 mM NaCl, 5 mM imidazole, 20 mM MgCl2, 10 mM KCl, 0.5 mM TCEP, 0.1 mM protease inhibitor, and DNase I. After resuspension, cells were disrupted by high-pressure and centrifuged at 30,000 g at 4° C. for 1 hour. The supernatant was incubated for 2 hours at room temperature with pre-equilibrated Ni-NTA affinity resin (Thermo Scientific) and then passed through a column for gravity flow purification. The column was washed with 20 column volumes of resuspension buffer, and the fusion protein was eluted with three column volumes of the same buffer with 250 mM imidazole. SUMO-tag cleavage was achieved by addition of ULP1 protease to the solution and subsequent dialysis overnight at 4° C. against 20 mM Tris buffer, pH 7.5, 50 mM NaCl, 0.5 mM TCEP. GSDMD was eluted from a second round of purification through pre-equilibrated Ni-NTA affinity resin. The protein was further purified by HI-TRAP® Q ion-exchange resin and a SUPERDEX® 75 gel filtration column (GE Healthcare) pre-equilibrated with 20 mM Tris buffer, pH 7.5, 50 mM NaCl, 0.5 mM TCEP. The purified protein was concentrated to 20 mg/ml and frozen at −80° C.
Free-Standing Lipid Bilayer Formation and Electrophysiology. For the lipid bilayer, a bilayer chamber with a polystyrene cuvette was used. In addition, the folding method, which is based on Langmuir-Blodgett film formation (Kroemer et al. (2009) Cell Death Differ. 16:3-11; Weavers et al. (2016) Cell 165:1658-1671) was employed. Monolayers that were spread in the air-water interface were faced at the chamber hole (Bergsbaken & Fink (2009) Nat. Rev. Microbiol. 7:99-109; Mulvihill et al. (2018) EMBO J. 37 (14): e98321). In brief, a shallow trough made of polystyrene was filled with recording solution, and the surface was separated into two parts by one of the cuvette walls. Bilayers were formed by monolayers of 1:3 1-palmitoyl-2-oleoylphosphatidylethanolamine (POPE)/1-palmitoyl-2-oleoylphosphatidylcholine (POPC) (Avanti-lipids) in pentane; where appropriate, phosphoinositides of the indicated headgroup were introduced with di-oleoyl (18:1) fatty acid chains at 10% relative concentration. A small amount of phospholipid, dispersed in pentane solution, was dropped on one of the water surfaces and as pentane evaporated, the lipid molecules remained at the air-water interface. The movements of the lipid molecules became less vigorous, and eventually the lipid molecules packed together to form a monolayer. For the formation of the planar lipid bilayer by the folding method, a monolayer was formed at the air-water interface in each compartment. Upon raising the recording solution level by adding more solution, the monolayer ran up on the cuvette surface and passed through the hole, where the two monolayers from both sides encountered each other and formed a bilayer. The membrane formed by this method has been referred to as a “solvent-free” membrane. The advantage of this method over other methods, like the painting method, is the capacity to form an asymmetrical membrane in which the lipid composition of either leaflet is arbitrarily defined (Kayagaki et al. (2015) Nature 526: 666-671). Once formed, the membrane retains this asymmetry for a long time because the flip-flop or exchange of the lipid molecules between both leaflets of the membrane is very slow.
For incorporation of the GSDMD into the lipid bilayer, 2 μM of the purified GSDMD protein was added to the cis side chamber along with 2 μM of caspase 1. The specific membrane capacitance of the membrane formed by the folding method was 0.6-0.8 μF/cm^2. […]

The subject of the next assay is Hela cells. The assay is described as follows: Optogenetic activation of PhoDer, membrane-targeted jRCaMP1b calcium flare imaging and fluctuation analysis. The assay is classed as cell-based. The conditions noted are these: PhoDer mutants in live Hela cells vs PhoDer. As for the experimental part: Cloning. Cloning and subcloning were performed using the DH5a strain of E. coli. All mammalian constructs were cloned into the pcDNA3.0 vector with a modified multiple cloning site. Plasmids were generated as follows. Gasdermin D gene was obtained from Addgene. A diffusible optogenetic GSDMD, referred to herein as “PhoDer” and set forth in SEQ ID NO: 33, was constructed according to the reported domains structure by ligating three fragments into the pcDNA3.0 vector in one reaction via Gibson Assembly (New England BioLabs). For each fragment, PCR was specifically designed to create appropriate complementation. The jRCaMP1b gene, encoding a sensitive red protein calcium indicator, was obtained from Addgene. Membrane targeted calcium indicator jRCaMP1b was constructed by ligating a PCR fragment of the calcium indicator into the restriction enzyme sites BamHI and EcoRI in a modified pcDNA3.0 vector carrying a 5′ fragment encoding the N-terminal Lyn kinase localization sequence.
Cell Culture. HeLa and RAW264.7 cells were maintained in Dulbecco's Modified Eagle Medium (DMEM) medium supplemented with 10% fetal bovine serum (FBS) and 1% penicillin and streptomycin. Cells were transfected at 50%-70% confluency using LIPOFECTAMINE® 2000 transfection reagent and incubated for 24 hours before imaging. Cells were never serum-starved. To examine endogenous inflammatory activation, RAW264.7 cells were treated with 100 ng/μL lipopolysaccharide (LPS, Invivogen) at the beginning of each experiment. Pretreatment to bias membrane composition by phosphatidylinositol 4,5-bisphosphate (PIP2) modifying enzymes was performed by incubating Hela cells in Hanks' Balanced Salt Solution (HBSS) buffer with inhibitors at 37° C. for 10 minutes to prior imaging at the following concentrations: for phosphoinositide 3-kinase (PI3K), cells were treated 10 μM wortmannin (Tocris); and for phospholipase C (PLC), cells were treated with 10 μM U73122 (Tocris). Cells were removed from the incubator and allowed to come to thermal equilibrium before being imaged in HBSS buffer at room temperature.
Fluorescence Imaging, Optogenetic Activation, and Post-Processing. All epifluorescence imaging was performed on a customized Nikon Ti2-E microscope equipped with individual control over excitation (EX) and emission (EM) filters, a fast LED light source (Lumencor) with fluid-cooled EMCCD (Andor), motorized stage, and examined under a 40× or 100× oil immersion objective under live focus tracking. For RFP, excitation (EX) and emission (EM) filter combinations (maxima/bandwidth in nm) are indicated. Cells were imaged at 12-15 second intervals. Emission intensities of individual cells were background-subtracted before normalization to zero time point, when optogenetic activation began. In the optical setup, optogenetic activation of PhoDer was performed using an EX filter at 440/20 nm for 20-30 ms across whole fields of view. This replicated the progression of endogenous activation of GSDMD observed in LPS-stimulated RAW264.7 cells. […] Where applicable, inhibitors were treated at the indicated concentration for 15 minutes prior to imaging.
Fluctuation Analysis and Quantification. To automate the objective isolation and quantitation of calcium flares, a post-processing algorithm was developed based on principles and normalization scheme detailed in work on photochromic stochastic optical fluctuation imaging (pcSOFI) (Dedecker et al. (2012) Proc. Natl. Acad. Sci. USA 109: 10909-10914). Briefly, fluctuation caused by the flares generate high autocorrelation signals in time-averaged series and yield high contrast at locales of the greatest ion flux. To truly reflect the local flux change, it is then normalized to remove dependence on the number of biosensors reporting at the given location using a scheme detailed previously (Mo et al. (2017) Nat. Methods 14 (4): 427-434). […]

Where [1] appears, read: lipid at 10% in POPE/POPC bilayer.
Where [2] appears, read: lipid at 10% in POPE/POPC bilayer vs baseline.

Turning to cardiolipin [cardiolipin (CL)], the “single pore activity / pore dynamics profile” value at GSDMD pores was “supported a pore dynamics profile similar to that of PIP2”.

As for “phosphatidylinositol 4,5-bisphosphate [PIP2]”, on GSDMD pores (setting [1]), the “mean current of pores” value turned out to be 20 pA and the “time to observe protein-membrane interaction” value was 2.4 ± 0.5 min. Further, on GSDMD pores (setting [2]), the “dwell time (open duration) of pores” value was “similarly distributed; also recorded: similar”, the “effect on open probability of pores” value is given as “did not affect the open probability” and the “increase in open/close events” value turned out to be 57 fold. Further, the “time to observe GSDMD protein-membrane interaction, in words” value on GSDMD pores is on record as “significantly shortened”.

As to diacylglycerol [DAG], on GSDMD pores, the “single pore activity / pore dynamics profile” value is given as “no single pore activity was detected”.

In the case of “phosphatidylinositol triphosphate [PIP3]”, the “mean current of pores” value on GSDMD pores (setting [1]) was found to be 20.5 pA. Besides, at GSDMD pores (setting [2]), the “dwell time (open duration) of pores” value is listed as “significantly shorter-lived; also recorded: apparently short dwell time”. Also, the “single pore activity / pore dynamics profile” value on GSDMD pores is given as “kept GSDMD pores predominantly in the open state”. Further, the “time to observe GSDMD protein-membrane interaction, in words” value at GSDMD pores is reported as “remained as rapid as with PIP2”; at GSDMD pores (listed as PI(3,4,5)P3 (PIP3)), “significantly shortened”.

B1: m1: PhoDer mutant K51Q/R53Q/K55Q (SEQ ID NO:34) (protein)
chain: MGSAFERVVRRVVQELDHGGEFIPVTSLQSSTGFQPYCLVVRKPSSSWFWQPQYQCVNLSIKDILEPDAAEPDVQRGRSFHFYDAMDGQIQGSVELAAPGQAKIAGGAAVSDSSSTSMNVYSLSVDPNTWQTLLHERHLRQPEHKVLQQLRSRGDNVYVVTEVLQTQKEVEVTRTHKREGSGRFSLPGATCLQGEGQGHLSQKKTVTIPSGSTLAFRVAQLVIDSDLDVLLFPDKKQRTFQPPATGHKRSTSEGAWPQLPSGLSMMRCLHNGGGSVIPDYFKQSFPEGYSWERSMTYEDGGICIATNDITMEGDSFINKIHFKGTNFPPNGPVMQKRTVGWEASTEKMYERDGVLKGDVKMKLLLKGGGHYRCDYRTTYKVKQKPVKLPDYHFVDHRIEILSHDKDYNKVKLYEHAVARNSTDSMDELYKGGSGGMVSKGEETITSVIKPDMKNKLRMEGNVNGHAFVIEGEGSGKPFEGIQTIDLEVKEGAPLPFAYDILTTAFHYGNRVFTKYPRGGGVPAEGAFTEDFQGLRAEVETISKELELLDRELCQLLLEGLEGVLRDQLALRALEEALEQGQSLGPVEPLDGPAGAVLECLVLSSGMLVPELAIPVVYLLGALTMLSETQHKLLAEALESQTLLGPLELVGSLLEQSAPWQERSTMSLPPGLLGNSWGEGAPAWVLLDECGLELGEDTPHVCWEPQAQGRMCALYASLALLSGLSQEPH
As to B1, the “pore opening/closing dynamics (automated flare quantification)” value in the assay with Hela cells was “significantly reduced pore opening/closing dynamics; also recorded: significant changes in pore activity”.

B2: m2: PhoDer mutant K51E/R53E/K55E (SEQ ID NO:35) (protein)
chain: MGSAFERVVRRVVQELDHGGEFIPVTSLQSSTGFQPYCLVVRKPSSSWFWEPEYECVNLSIKDILEPDAAEPDVQRGRSFHFYDAMDGQIQGSVELAAPGQAKIAGGAAVSDSSSTSMNVYSLSVDPNTWQTLLHERHLRQPEHKVLQQLRSRGDNVYVVTEVLQTQKEVEVTRTHKREGSGRFSLPGATCLQGEGQGHLSQKKTVTIPSGSTLAFRVAQLVIDSDLDVLLFPDKKQRTFQPPATGHKRSTSEGAWPQLPSGLSMMRCLHNGGGSVIPDYFKQSFPEGYSWERSMTYEDGGICIATNDITMEGDSFINKIHFKGTNFPPNGPVMQKRTVGWEASTEKMYERDGVLKGDVKMKLLLKGGGHYRCDYRTTYKVKQKPVKLPDYHFVDHRIEILSHDKDYNKVKLYEHAVARNSTDSMDELYKGGSGGMVSKGEETITSVIKPDMKNKLRMEGNVNGHAFVIEGEGSGKPFEGIQTIDLEVKEGAPLPFAYDILTTAFHYGNRVFTKYPRGGGVPAEGAFTEDFQGLRAEVETISKELELLDRELCQLLLEGLEGVLRDQLALRALEEALEQGQSLGPVEPLDGPAGAVLECLVLSSGMLVPELAIPVVYLLGALTMLSETQHKLLAEALESQTLLGPLELVGSLLEQSAPWQERSTMSLPPGLLGNSWGEGAPAWVLLDECGLELGEDTPHVCWEPQAQGRMCALYASLALLSGLSQEPH
With B2, in the assay with Hela cells, the “pore opening/closing dynamics (automated flare quantification)” value is “significantly reduced pore opening/closing dynamics; also recorded: significant changes in pore activity”.
